Assay results: patent US10072006B2 (MUTABILIS, priority 2015, dated 2018)

Tests used:
[1] = test system: E. cloacae UFR38 (CTX-M-15, NDM-1); test: MIC of compounds and synergy with ceftazidime (broth microdilution); assay type: cell-based; conditions: strain UFR38 (E. cloacae); for MIC: Enterobacter cloacae, 18 h, read-out: MIC compounds of the invention alone; for MIC, combination of CAZ and compounds of the invention: MIC of ceftazidime with compound fixed at 4 μg/mL
Outline: (§1)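 First, test compounds prepared in DMSO are spotted on sterile plates. Next, plates incubate at 35° C under ambient air for 16-20 h. Finally, wells are inspected by eye, and the lowest concentration without growth gives the MIC.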

[2] = test system: P. aeruginosa UFR35 (OXA-23); test: as above; assay type: cell-based; conditions: strain UFR35 (P. aeruginosa); for MIC: Pseudomonas aeruginosa, 18 h, read-out: MIC compounds of the invention alone
Outline: as §1

[3] = test system: E. coli UFR61O (TEM-1, KPC-2); test: as above; assay type: cell-based; conditions: for MIC: Escherichia coli, strain UFR61O (E. coli), read-out: MIC compounds of the invention alone; for MIC, combination of CAZ and compounds of the invention: MIC of ceftazidime with compound fixed at 4 μg/mL, strain UFR610 (E. coli)
Outline: as §1

[4] = test system: E. coli UFR74 (SHV-1, DHA-1); test: as above; assay type: cell-based; conditions: strain UFR74 (E. coli); for MIC: Escherichia coli, 18 h, read-out: MIC compounds of the invention alone; for MIC, combination of CAZ and compounds of the invention: MIC of ceftazidime with compound fixed at 4 μg/mL
Outline: as §1

[5] = test system: E. cloacae UFR70 (TEM-1, CTX-M-15, CMY-2, OXA-1, Porin loss); test: as above; assay type: cell-based; conditions: for MIC: Enterobacter cloacae, 18 h, read-out: MIC compounds of the invention alone; for MIC, combination of CAZ and compounds of the invention: MIC of ceftazidime with compound fixed at 4 μg/mL, strain UFR70 (E. cloacae)
Outline: as §1

AmpC (P99) = AmpC (P99) (Enterobacter cloacae, UniProt P05364); test: biochemical
Chain of AmpC (P99) (P05364 21-381): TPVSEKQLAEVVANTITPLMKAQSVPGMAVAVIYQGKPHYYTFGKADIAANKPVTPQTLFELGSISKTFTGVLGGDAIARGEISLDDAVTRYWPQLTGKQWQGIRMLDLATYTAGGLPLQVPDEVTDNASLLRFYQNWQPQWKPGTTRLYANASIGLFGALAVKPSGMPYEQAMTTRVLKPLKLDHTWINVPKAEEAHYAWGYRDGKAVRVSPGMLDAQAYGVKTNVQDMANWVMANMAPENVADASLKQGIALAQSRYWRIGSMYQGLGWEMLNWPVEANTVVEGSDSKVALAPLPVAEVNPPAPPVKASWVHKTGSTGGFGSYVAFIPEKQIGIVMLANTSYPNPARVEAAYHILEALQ

OXA-1 = target: T1, OXA-1 (Escherichia coli, UniProt P13661); test: β-lactamase inhibitory activity, determination of IC50 (nitrocefin hydrolysis); assay type: biochemical
T1 construct: made in house; host or cells: E. coli
T1 sequence (P13661 26-276): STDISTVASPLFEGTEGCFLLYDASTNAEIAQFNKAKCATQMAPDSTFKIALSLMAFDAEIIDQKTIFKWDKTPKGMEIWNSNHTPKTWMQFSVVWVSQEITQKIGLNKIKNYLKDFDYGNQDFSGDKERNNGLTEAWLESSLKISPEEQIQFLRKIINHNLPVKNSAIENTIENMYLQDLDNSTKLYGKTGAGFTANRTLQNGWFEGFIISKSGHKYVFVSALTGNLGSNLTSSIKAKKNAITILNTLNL

[6] = test system: K. pneumoniae UFR68 (TEM-1, SHV-11, CTX-M-15, KPC-3); test: microbe, parasite or virus in culture; assay type: cell-based; conditions: for MIC: Klebsiella pneumoniae, 18 h, read-out: MIC compounds of the invention alone
OXA-15 = target: T2, OXA-15 (Pseudomonas aeruginosa, UniProt Q51574); test: β-lactamase inhibitory activity, determination of IC50 (nitrocefin hydrolysis); assay type: biochemical
T2 construct: made in house; host or cells: E. coli
T2 sequence (Q51574 22-275): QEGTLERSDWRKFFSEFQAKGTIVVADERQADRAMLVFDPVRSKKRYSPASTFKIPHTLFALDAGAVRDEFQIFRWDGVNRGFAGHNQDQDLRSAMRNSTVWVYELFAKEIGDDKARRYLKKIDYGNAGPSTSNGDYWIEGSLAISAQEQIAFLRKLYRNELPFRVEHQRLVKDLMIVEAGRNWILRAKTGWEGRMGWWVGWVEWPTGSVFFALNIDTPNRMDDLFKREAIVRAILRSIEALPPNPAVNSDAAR

KPC-2 = target: T3, KPC-2 (Klebsiella pneumoniae, UniProt Q9F663); test: as above; assay type: biochemical
T3 construct: made in house; host or cells: E. coli
T3 sequence (Q9F663 25-293 limits assumed): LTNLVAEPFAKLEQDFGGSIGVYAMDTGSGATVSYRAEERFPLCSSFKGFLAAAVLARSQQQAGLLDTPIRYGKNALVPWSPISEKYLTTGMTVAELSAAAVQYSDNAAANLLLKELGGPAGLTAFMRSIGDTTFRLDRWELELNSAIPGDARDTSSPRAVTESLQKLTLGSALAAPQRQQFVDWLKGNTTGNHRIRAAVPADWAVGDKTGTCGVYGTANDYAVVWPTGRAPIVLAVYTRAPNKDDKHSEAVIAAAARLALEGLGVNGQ

OXA-48 = target: T4, OXA-48 (Klebsiella pneumoniae, UniProt Q6XEC0); test: as above; assay type: biochemical
T4 construct: made in house; host or cells: E. coli
T4 sequence (Q6XEC0 23-265 limits assumed): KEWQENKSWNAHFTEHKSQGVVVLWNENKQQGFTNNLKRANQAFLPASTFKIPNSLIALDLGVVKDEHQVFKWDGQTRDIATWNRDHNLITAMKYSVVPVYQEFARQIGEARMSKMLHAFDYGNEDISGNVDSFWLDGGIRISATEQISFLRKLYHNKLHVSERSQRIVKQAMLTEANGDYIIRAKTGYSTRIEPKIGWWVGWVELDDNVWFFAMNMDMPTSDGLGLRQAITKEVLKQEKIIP

SHV-1 = target: T5, SHV-1 (Klebsiella pneumoniae, UniProt P0AD64); test: as above; assay type: biochemical
T5 construct: made in house; host or cells: E. coli
T5 sequence (P0AD64 22-286): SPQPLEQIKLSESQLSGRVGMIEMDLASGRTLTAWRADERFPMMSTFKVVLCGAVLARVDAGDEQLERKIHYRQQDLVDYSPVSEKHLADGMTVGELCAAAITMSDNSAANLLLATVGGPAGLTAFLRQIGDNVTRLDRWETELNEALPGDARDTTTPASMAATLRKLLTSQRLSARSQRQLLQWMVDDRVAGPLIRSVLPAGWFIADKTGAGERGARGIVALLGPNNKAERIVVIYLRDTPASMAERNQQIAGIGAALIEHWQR

CTX-M-15 = target: T6, CTX-M-15 (Escherichia coli, UniProt Q9EXV5); test: as above; assay type: biochemical
T6 construct: made in house; host or cells: E. coli
T6 sequence (Q9EXV5 entry or part of it): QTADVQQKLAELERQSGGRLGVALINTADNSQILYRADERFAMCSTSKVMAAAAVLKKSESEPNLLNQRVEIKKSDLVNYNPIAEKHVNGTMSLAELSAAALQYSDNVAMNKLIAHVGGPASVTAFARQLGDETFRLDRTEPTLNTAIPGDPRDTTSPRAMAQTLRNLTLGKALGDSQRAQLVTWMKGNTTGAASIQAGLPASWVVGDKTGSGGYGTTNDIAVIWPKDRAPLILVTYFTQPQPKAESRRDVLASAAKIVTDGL

[7] = test system: K. pneumoniae 160143 (TEM-1, SHV-1, CTX-M-15, KPC-2, OXA-1); test: microbe, parasite or virus in culture; assay type: cell-based; conditions: for MIC: Klebsiella pneumoniae, 18 h, read-out: MIC compounds of the invention alone
Outline: as §1

[8] = test system: E. coli 190317 (TEM-1, SHV-12, CTX-M-15, OXA-1); test: microbe, parasite or virus in culture; assay type: cell-based; conditions: for MIC: Escherichia coli, 18 h, read-out: MIC compounds of the invention alone; for MIC, combination of CAZ and compounds of the invention: MIC of ceftazidime with compound fixed at 4 μg/mL, strain 190317 (E. coli)
Outline: as §1

[9] = test system: E. cloacae 260508 (TEM-1, CTX-M-15); test: microbe, parasite or virus in culture; assay type: cell-based; conditions: for MIC: Enterobacter cloacae, read-out: MIC compounds of the invention alone; for MIC, combination of CAZ and compounds of the invention: MIC of ceftazidime with compound fixed at 4 μg/mL, strain 260508 (E. cloacae)
Outline: as §1

[10] = test system: P. aeruginosa UFR90 (Derepressed ampC, OprD-); test: MIC of compounds and synergy with ceftazidime (broth microdilution); assay type: cell-based
Outline: as §1

[11] = test system: P. aeruginosa UFR92 (Derepressed ampC, OprD-); test: as above; assay type: cell-based; conditions: MIC of ceftazidime with compound fixed at 4 μg/mL; strain UFR92 (P. aeruginosa)
Outline: as §1

Row | Compound | MIC [1] [µg/mL] | MIC, combination of CAZ and compounds of the invention [1] [µg/mL] | MIC [2] [µg/mL] | MIC [3] [µg/mL] | MIC, combination of CAZ and compounds of the invention [3] [µg/mL] | MIC [4] [µg/mL] | MIC, combination of CAZ and compounds of the invention [4] [µg/mL] | MIC [5] [µg/mL] | MIC, combination of CAZ and compounds of the invention [5] [µg/mL] | IC50 (AmpC (P99)) [nM] | IC50 (OXA-1) [nM] | MIC [6] [µg/mL] | IC50 (OXA-15) [nM] | IC50 (KPC-2) [nM] | IC50 (OXA-48) [nM] | IC50 (SHV-1) [nM] | IC50 (CTX-M-15) [nM] | MIC [7] [µg/mL] | MIC [8] [µg/mL] | MIC, combination of CAZ and compounds of the invention [8] [µg/mL] | other results
1 | NC[C@@H]1C(c2ncco2)=C[C@@H]2CN1C(=O)N2OS(=O)(=O)[O-].O=C(O)C(F)(F)F.[Na+] [Example 5, Sodium and 2,2,2-trifluoroacetate [(2S,5R)-2-(azaniumylmethyl)-7-oxo-3-oxazol-2-yl-1,6-diazabicyclo[3.2.1]oct-3-en-6-yl] sulfate] | ≤ 0.016 | <0.25 | 0.25 | 0.5 | <0.25 | 16 | <0.25 | 8 | <0.25 | 11000 | 370 | 32 | 8 | 1800 | 180 | 64 | 130 | 32 | ≤ 0.016 | <0.25 | MIC, combination of CAZ and compounds of the invention ([6]; MIC of ceftazidime with compound fixed at 4 μg/mL, strain UFR68 (K. pneumoniae)): ≤0.25 µg/mL; MIC, combination of CAZ and compounds of the invention ([7]; MIC of ceftazidime with compound fixed at 4 μg/mL, strain 160143 (K. pneumoniae)): <0.25 µg/mL; MIC [9]: 8 µg/mL; MIC, combination of CAZ and compounds of the invention [9]: <0.25 µg/mL
2 | NC[C@@H]1C(c2nccs2)=C[C@@H]2CN1C(=O)N2OS(=O)(=O)[O-].O=C(O)C(F)(F)F.[Na+] [Example 2, Sodium and 2,2,2-trifluoroacetate [(2S,5R)-2-(azaniumylmethyl)-7-oxo-3-thiazol-2-yl-1,6-diazabicyclo[3.2.1]oct-3-en-6-yl] sulfate] | 32 | <0.25 | 2 | 0.031 | <0.25 | 16 | ≤0.125 | 4 | <0.25 | 3.2 | 6.1 | 16 | 0.84 | 3.9 | 3.5 | 0.74 | 0.76 | 8 | ≤ 0.016 | <0.25 | MIC, combination of CAZ and compounds of the invention ([10]; MIC of ceftazidime with compound fixed at 4 μg/mL, strain UFR90 (P. aeruginosa)): <0.25 µg/mL; MIC ([10]; Pseudomonas aeruginosa, 18 h, read-out: MIC compounds of the invention alone): 1 µg/mL; MIC, combination of CAZ and compounds of the invention ([2]; MIC of ceftazidime with compound fixed at 4 μg/mL): <0.25 µg/mL; MIC, combination of CAZ and compounds of the invention [11]: <0.25 µg/mL; MIC [9]: ≤ 0.016 µg/mL; MIC, combination of CAZ and compounds of the invention [9]: <0.25 µg/mL
